Measurements reported in PubChem BioAssay AID248 (DTP/NCI, 2004).
“And” between values parts separate entries of the source, which are not always exact repeats. Identical values can stand only once. Inconclusive results and toxic doses are left out. Rule as the data show it: active = T/C of 150% or more; inactive = T/C below 125%.

Tested on: L1210 leukemia ip in BDF1 mice, survival T/C
Assay: NCI In Vivo Anticancer Drug Screen. Data for tumor model L1210 Leukemia (intraperitoneal) in B6D2F1 (BDF1) mice
Conditions: endpoint: mean survival time, higher = longer survival
Procedure, shortened: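 Transplanted-tumor mice were given test agent; controls received vehicle only. Survival readings from the two groups were divided (treated over control).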

[1] = dose: 100.0 mg/kg/injection, schedule: Q01DX009 (ip), vehicle: Klucel (hydroxypropylcellulose) (HPC)
[2] = dose: 200.0 mg/kg/injection, schedule: Q01DX009 (ip), vehicle: Klucel (hydroxypropylcellulose) (HPC)
[3] = dose: 400.0 mg/kg/injection, schedule: Q01DX009 (ip), vehicle: Klucel (hydroxypropylcellulose) (HPC)
[4] = dose: 100.0 mg/kg/injection, schedule: Q01DX001 (ip), vehicle: saline
[5] = dose: 200.0 mg/kg/injection, schedule: Q01DX001 (ip), vehicle: saline
[6] = dose: 400.0 mg/kg/injection, schedule: Q01DX001 (ip), vehicle: saline
[7] = dose: 75.0 mg/kg/injection, schedule: Q01DX001 (ip), vehicle: other
[8] = dose: 150.0 mg/kg/injection, schedule: Q01DX001 (ip), vehicle: other
[9] = dose: 300.0 mg/kg/injection, schedule: Q01DX001 (ip), vehicle: other
[10] = dose: 100.0 mg/kg/injection, schedule: Q04DX003 (ip), vehicle: Klucel (hydroxypropylcellulose) (HPC)
[11] = dose: 200.0 mg/kg/injection, schedule: Q04DX003 (ip), vehicle: Klucel (hydroxypropylcellulose) (HPC)
[12] = dose: 400.0 mg/kg/injection, schedule: Q04DX003 (ip), vehicle: Klucel (hydroxypropylcellulose) (HPC)
[13] = dose: 100.0 mg/kg/injection, schedule: Q04DX002 (ip), vehicle: Klucel (hydroxypropylcellulose) (HPC)
[14] = dose: 200.0 mg/kg/injection, schedule: Q04DX002 (ip), vehicle: Klucel (hydroxypropylcellulose) (HPC)
[15] = dose: 400.0 mg/kg/injection, schedule: Q04DX002 (ip), vehicle: Klucel (hydroxypropylcellulose) (HPC)
[16] = dose: 100.0 mg/kg/injection, schedule: Q04DX003 (ip), vehicle: saline with Tween-80
[17] = dose: 200.0 mg/kg/injection, schedule: Q04DX003 (ip), vehicle: saline with Tween-80
[18] = dose: 100.0 mg/kg/injection, schedule: Q01DX009 (ip), vehicle: saline with Tween-80
[19] = dose: 200.0 mg/kg/injection, schedule: Q01DX009 (ip), vehicle: saline with Tween-80
[20] = dose: 400.0 mg/kg/injection, schedule: Q01DX009 (ip), vehicle: saline with Tween-80
[21] = dose: 25.0 mg/kg/injection, schedule: Q04DX002 (ip), vehicle: saline
[22] = dose: 50.0 mg/kg/injection, schedule: Q04DX002 (ip), vehicle: saline
[23] = dose: 100.0 mg/kg/injection, schedule: Q04DX002 (ip), vehicle: saline
[24] = dose: 400.0 mg/kg/injection, schedule: Q04DX003 (ip), vehicle: saline with Tween-80

Measured: T/C

CC(C)C(O)c1cnc(OCc2ccccc2)nc1OCc1ccccc1 (stereo not given)
inactive: [1] 96 % of control | dose: 100.0 mg/kg/injection, schedule: Q04DX003 (ip), vehicle: other 98 % of control | [2] 101 % of control | dose: 200.0 mg/kg/injection, schedule: Q04DX003 (ip), vehicle: other 103 % of control | [3] 101 % of control | dose: 400.0 mg/kg/injection, schedule: Q04DX003 (ip), vehicle: other 103 % of control

CC(=O)Nc1ccc(C(C)(C)C)cc1
inactive: dose: 100.0 mg/kg/injection, schedule: Q01DX001 (ip), vehicle: saline with Tween-80 95 % of control | dose: 200.0 mg/kg/injection, schedule: Q01DX001 (ip), vehicle: saline with Tween-80 95 % of control | dose: 400.0 mg/kg/injection, schedule: Q01DX001 (ip), vehicle: saline with Tween-80 95 % of control

CC(=O)NC1CCC(NC(C)=O)CC1 (stereo not given)
inactive: [4] 104 % of control | [5] 97 % of control | [6] 104 % of control

C/C=C/CC1(CCC(C)C)C(=O)NC(=O)NC1=O
inactive: dose: 75.0 mg/kg/injection, schedule: Q01DX001 (ip), vehicle: acetone 95 % of control | [7] 101 % of control | dose: 150.0 mg/kg/injection, schedule: Q01DX001 (ip), vehicle: acetone 101 % of control | [8] 101 % of control | [9] 105 % of control

O=C(O)C(Cl)(c1ccccc1)c1ccccc1
inactive: [7] 94 % of control | [8] 101 % of control | [9] 100 % of control

Cc1ccc(C(c2ccccc2)c2ccccc2)cc1C
inactive: [4] 97 % of control | [6] 88 % of control

O=c1[nH][nH]c2ccccc12
inactive: dose: 31.2 mg/kg/injection, schedule: Q01DX Z (ip), vehicle: other 88 % of control | dose: 125.0 mg/kg/injection, schedule: Q01DX Z (ip), vehicle: other 88 % of control | dose: 250.0 mg/kg/injection, schedule: Q01DX Z (ip), vehicle: other 92 % of control

COc1cc(OC)c(NC(=O)Nc2ccc([N+](=O)[O-])cc2OC)cc1Cl
inactive: [1] 101 % of control | [2] 95 % of control | [3] 97 % of control

COc1ccc(C(C)=O)cc1CCCOC(C)=O
inactive: dose: 100.0 mg/kg/injection, schedule: Q01DX001 (ip), vehicle: carboxymethylcellulose (CMC) 95 % of control | dose: 200.0 mg/kg/injection, schedule: Q01DX001 (ip), vehicle: carboxymethylcellulose (CMC) 106 % of control | dose: 400.0 mg/kg/injection, schedule: Q01DX001 (ip), vehicle: carboxymethylcellulose (CMC) 101 % of control

N=C(c1ccccc1)C1SCCCS1
inactive: [10] 103 % of control | [11] 97 % of control | [12] 97 % of control

O=C(c1ccccc1)c1cc(Cl)ccc1O
inactive: dose: 75.0 mg/kg/injection, schedule: Q01DX009 (ip), vehicle: Klucel (hydroxypropylcellulose) (HPC) 102 % of control | [13] 100 % of control | dose: 150.0 mg/kg/injection, schedule: Q01DX009 (ip), vehicle: Klucel (hydroxypropylcellulose) (HPC) 98 % of control | [14] 93 % of control | dose: 300.0 mg/kg/injection, schedule: Q01DX009 (ip), vehicle: Klucel (hydroxypropylcellulose) (HPC) 94 % of control | [15] 96 % of control

CCCCCCCCCCCCCCCCNCCCN
inactive: [16] 98 % of control | [17] 96 % of control

Cc1c(C)c(C)c(CNNC(=S)Nc2ccc(S(=O)(=O)N3CCCCC3)cc2)c(C)c1C
inactive: [13] 104 % of control | [14] 92 % of control | [15] 95 % of control

CC1=CC(C)(C)NC(=S)N1c1cc(Cl)ccc1Cl
inactive: [18] 87 % of control | [19] 90 % of control | dose: 224.0 mg/kg/injection, schedule: Q01DX Z (ip), vehicle: methylcellulose (MC) 105 % of control | dose: 334.0 mg/kg/injection, schedule: Q01DX Z (ip), vehicle: methylcellulose (MC) 89 % of control | [20] 92 % of control | dose: 500.0 mg/kg/injection, schedule: Q01DX Z (ip), vehicle: methylcellulose (MC) 86 % of control

O=C1C(CO)=C[C@@H](O)[C@H]2O[C@@H]12
inactive: dose: 3.0 mg/kg/injection, schedule: Q01DX009 (ip), vehicle: saline 93 % of control | dose: 6.0 mg/kg/injection, schedule: Q01DX009 (ip), vehicle: saline 93 % of control | dose: 12.0 mg/kg/injection, schedule: Q01DX009 (ip), vehicle: saline 95 % of control | dose: 25.0 mg/kg/injection, schedule: Q01DX001 (ip), vehicle: saline 98 % of control | dose: 25.0 mg/kg/injection, schedule: Q01DX009 (ip), vehicle: saline 98 % of control | dose: 50.0 mg/kg/injection, schedule: Q01DX001 (ip), vehicle: saline 121 % of control | dose: 50.0 mg/kg/injection, schedule: Q01DX009 (ip), vehicle: saline 121 % of control | dose: 75.0 mg/kg/injection, schedule: Q01DX009 (ip), vehicle: saline 102 % of control | [4] 103 % of control and 123 % of control | dose: 150.0 mg/kg/injection, schedule: Q01DX009 (ip), vehicle: saline 109 % of control | [5] 106 % of control | [6] 111 % of control

C=CCSC(=S)N(C)C
inactive: [21] 101 % of control | [22] 89 % of control

[O]=[Sb]([OH])([c]1ccccc1)[c]1ccccc1
inactive: dose: 10.0 mg/kg/injection, schedule: Q01DX001 (ip), vehicle: saline 87 % of control | dose: 20.0 mg/kg/injection, schedule: Q01DX001 (ip), vehicle: saline 91 % of control

CCN(CC)CCCC(C)Nc1cccc2c1C(=O)c1c(c(O)c3ccccc3c1O)C2=O (stereo not given)
inactive: [21] 93 % of control | [22] 93 % of control | [23] 93 % of control

Cc1cc(=O)[nH]c(N2C(=O)c3ccccc3C2=O)n1
inactive: dose: 25.0 mg/kg/injection, schedule: Q04DX003 (ip), vehicle: Klucel (hydroxypropylcellulose) (HPC) 99 % of control | dose: 50.0 mg/kg/injection, schedule: Q04DX003 (ip), vehicle: Klucel (hydroxypropylcellulose) (HPC) 102 % of control

Clc1ccc2c(c1)C(Nc1cc3c4ccccc4ccc3c3ccccc13)c1cc(Cl)cc(Cl)c1-2 (stereo not given)
inactive: [1] 88 % of control | [10] 90 % of control | [2] 88 % of control | [11] 95 % of control | [3] 86 % of control | [12] 93 % of control

CNCCC(=O)C1CCC(OC)CC1 (stereo not given)
inactive: [23] 92 % of control | dose: 200.0 mg/kg/injection, schedule: Q04DX002 (ip), vehicle: saline 110 % of control

COc1ccc(/C=N/NC(=O)Nc2ccccc2)cc1OC
inactive: [1] 98 % of control | [2] 89 % of control | [3] 93 % of control

CC(=S)Nc1ccc2ccccc2c1
inactive: [18] 94 % of control | [16] 101 % of control | [19] 94 % of control | [17] 104 % of control | [20] 109 % of control | [24] 101 % of control

C1CC2CCCC3CC(B4OCCO4)CC(C1)C23 (stereo not given) (tested in a mixture with another compound)
inactive: dose: 100.0 mg/kg/injection, schedule: Q01DX009 (ip), vehicle: other 101 % of control | [16] 97 % of control | dose: 200.0 mg/kg/injection, schedule: Q01DX009 (ip), vehicle: other 105 % of control | [17] 92 % of control | dose: 400.0 mg/kg/injection, schedule: Q01DX009 (ip), vehicle: other 108 % of control | [24] 106 % of control

CC1NNC(=O)c2ccccc21 (stereo not given)
inactive: [4] 95 % of control | [5] 96 % of control | [6] 94 % of control

C=C1OC(=O)C(=O)N1CC(=O)O
inactive: [4] 103 % of control | [5] 106 % of control
